What is called melting point is the temperature, or range, at which the solid turns liquid.

This is an account of results in patent publication US20040053996A1, “Use of oxabicyclo[2.2.1]heptane derivatives as pesticidal agents” (priority 2000, published 2004).

The test system of series [1] is Meloidogyne incognita. The series is described as follows: Meloidogyne incognita test. It is filed as in vivo. As to conditions: 20 ppm; sand with egg-larvae suspension and lettuce seeds; nematocidal activity from gall formation, 100% = no galls. As to the method: To produce a suitable preparation of active compound, 1 part by weight of active compound is mixed with the stated amounts of solvent and of emulsifier, and the concentrate is diluted with water to the desired concentration.
Containers are filled with sand, preparation of active compound, a suspension of egg-larvae of Meloidogyne incognita and with lettuce seeds. The lettuce seeds germinate and the plants are allowed to grow. Galls are formed on the roots.
After the desird period of time, the nematocidal activity is determined on basis of the formation of galls and is calculated in %.
An activity of 100% means that no galls have been found, an activity of 0% means that the number of the galls at the treated plants corresponds to the number of galls in the untreated control plants.

The test system of series [2] is Erysiphe graminis f. sp.hordei. In words: Erysiphe test (barley)/induction of resistance. As to conditions: young barley plants sprayed at 750 g/ha; inoculated 4 days after treatment; evaluated 7 days after inoculation; 100% = no disease. It is filed as in vivo. As to the method:
Erysiphe Test (Barley)/Induction of Resistance
To produce a suitable preparation of active compound, 1 part by weight of active compound is mixed with the stated amount of solvent, and the concentrate is diluted with water and the stated amount of emulsifier to the desired concentration.
To test for resistance-inducing activity, young barley plants are sprayed with the preparation of active compound at the stated rate of application. 4 days after the treatment, the plants are inoculated with an aqueous spore suspension of Erysiphe graminis f. sp.hordei. The plants are subsequently placed in a greenhouse at 70% relative atmospheric humidity and 18° C.
The test is evaluated 7 days after the inoculation. 0% means an efficacy which corresponds to that of the control while an efficacy of 100% means that no disease is observed.

For series [3], the system named is Myzus persicae. In words: Myzus test. It is filed as in vivo. Conditions: 100 ppm, infested cabbage leaves (Brassica oleracea) dipped. The method, then: (§1) To produce a suitable preparation of active compound, 1 part by weight of active compound is mixed with the stated amounts of solvent and of emulsifier, and the concentrate is diluted with emulsifier—containing water to the desired concentration.
Cabbage leaves (Brassica oleracea) which are heavily infested by Myzus persicae are dipped into a preparation of active compound of the desired concentration.
After the desired period of time, the kill in % is determined. 100% means that all aphids have been killed; (0)% means that none of the aphids nave been killed.

Series [4] concerns larvae of Phaedon cochleariae. The series is described as follows: Phaedon larvae test. As to conditions: 1000 ppm, cabbage leaves (Brassica oleracea) dipped, infested with larvae. The format is in vivo. As to the method:
as §1
Cabbage leaves (Brassica oleracea) are treated by being dipped into the preparation of active compound of the desired concentration and are infested with larvae of Phaedon cochleariae while the leaves are still moist.
After the desired period of time, the kill in % is determined. 100% means that all beetle larvae have been killed; 0% means that no beetle larvae have been killed.

Series [5] relates to green rice leaf hopper (Nephotettix cincticeps). In words: Nephotettix test. The format is in vivo. Conditions: 1000 ppm, rice seedlings (Oryza sativa) dipped, infested with larvae. As to the method:
To produce a suitable preparation of active compound, 1 part by weight of active compound is mixed with the stated amount of solvent and the stated amount of emulsifier, and the concentrate is diluted with water to the desired concentration.
Rice seedlings (Oryza sativa) are treated by being dipped into the preparation of active compound of the desired concentration and are infested with larvae of the green rice leaf hopper (Nephotettix cincticeps) while the seedlings are still moist.
After the desired period of time, the kill in % is detemruned. 100% means that all leaf hoppers have been killed; 0% means that none of the leaf hoppers have been killed.

For series [6], the system named is greenhouse red spider mite (Tetranychus urticae). In words: Tetranychus test (OP-resistant/dip treatment). It is filed as in vivo. Conditions: 1000 ppm, infested bean plants (Phaseolus vulgaris) dipped, OP-resistant mites. As to the method: Tetranychus Test (OP Resistant/Dip Treatment)
To produce a suitable preparation of active compound, 1 part by weight of active compound is mixed with the stated amount of solvent and the stated amount of emulsifier, and the concentrate is diluted with emulsifier-containing water to the desired concentration.
Bean plants (Phaseolus vulgaris) which are heavily infested by all stages of the greenhouse red spider mite (Tetranychus urticae) are dipped into a solution of the active compound at the desired concentration.
After the desired period of time, the effect in % in determined. 100% means that all spider mites have been killed; 0% means that none of the spider mites have been killed.

In series [1], `CC(CNC(=O)C1C2CCC(O2)C1C(=O)O)c1ccccc1` (centres unmarked) had a kill in % of 100%.
For the molecule `O=C(O)C1C2C=CC(O2)C1C(=O)Nc1cccc(Cl)c1` (centres unmarked), the Efficacy in % in series [2] came to 70%.
Still for that read-out and setting: the same measure for `O=C(O)C1C2CCC(O2)C1C(=O)NCCc1ccccc1` (centres unmarked): 90%; for `CC(C)(CNC(=O)C1C2C=CC(O2)C1C(=O)O)n1cncn1` (centres unmarked): 70%.
The same measure, in the same setting: the same measure for `COc1ccccc1NC(=O)C1C2CCC(O2)C1C(=O)O` (centres unmarked): 70%.
Regarding `O=C(O)C1C2C=CC(O2)C1C(=O)O` (centres unmarked), the “Kill in % after 6 days” value in series [3] came to 80%.
As for `O=C(O)C1C2CCC(O2)C1C(=O)O` (centres unmarked), the “kill in % after 7 days” value in series [4] is on record as 100%.
In series [2], `CC(Cc1ccccc1)NC(=O)C1C2CCC(O2)C1C(=O)O` (centres unmarked) registered an Efficacy in % of 80%.
On to `CCOC(=O)C1C2C=CC(O2)C1C(=O)Sc1ccccc1NC(N)=O` (centres unmarked), for which the “Kill in % after 6 days” value in series [5] is reported as 100%.
For `O=C(O)C1C2C=CC(O2)C1C(=O)NCc1cc(Cl)nc(Cl)c1` (centres unmarked), the Efficacy in % in series [2] was 70%.
The same measure, in the same setting: the same measure for `O=C(O)C1C2C=CC(O2)C1C(=O)NCCCc1ccccc1` (centres unmarked): 70%.
Take `COC(=O)C1C2C=CC(O2)C1C(=O)OC` (centres unmarked): the “kill in % after 7 days” value in series [6] is 90%.
On to `O=C(O)[C@@H]1C2CCC(O2)[C@@H]1C(=O)O`, for which the “Kill in % after 6 days” value in series [5] was 100%.
`Cc1cc(C)c(NC(=O)C2C3CCC(C)(O3)C2C(=O)O)c(C)c1` (centres unmarked) returned a melting point of 168 °C.
